Our source for the IC50 values is US9315517B2, “Imidazol-piperidinyl derivatives as modulators of kinase activity” (Merck Patent GmbH, priority 2012, dated 2016).

The target in assay [1] is T1, P70S6K (T412E mutant, Millipore) (Homo sapiens, UniProt P23443, T412E).
T1 construct: purchased Millipore
Kind of assay: P70S6K enzyme assay. The settings on record: enzyme inhibition; 24 μM ATP, 90 min at 25° C., Caliper mobility shift. It counts as biochemical. The procedure, abridged:
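P70S6K T412E mutant (3 nM) with 24 μM ATP and 1 μM FITC-labelled S6-derived peptide in 100 mM Hepes pH 7.5, 5 mM MgCl2, 1 mM DTT, 0.015% Brij; 90 min at 25 °C, EDTA-stopped. Phosphorylated product and substrate peptides were separated by microfluidic mobility shift to derive IC50.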

Assay [2] concerns the target T2, His-AKT (Full Length) (Homo sapiens, UniProt P31749).
T2 construct: 0.1 ng/μl His-AKT (Full Length); His; purchased Invitrogen P2999
In words: AKT enzyme assay. It counts as biochemical. The settings on record: enzyme inhibition; 160 uM ATP, 90 min at 25° C., Caliper mobility shift. The procedure, abridged:
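Full-length His-AKT (0.1 ng/μl) with 160 uM ATP and 1 μM FITC-AHA-GRPRTSSFAEG-NH2 peptide in 100 mM HEPES pH 7.5, 1 mM MgCl2, 1 mM DTT, 0.015% Brij-35, 90 min at 25° C, EDTA stop. Off-chip mobility shift measured percent substrate conversion; IC50 from sigmoidal dose-response.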

T2 sequence (P31749 whole entry): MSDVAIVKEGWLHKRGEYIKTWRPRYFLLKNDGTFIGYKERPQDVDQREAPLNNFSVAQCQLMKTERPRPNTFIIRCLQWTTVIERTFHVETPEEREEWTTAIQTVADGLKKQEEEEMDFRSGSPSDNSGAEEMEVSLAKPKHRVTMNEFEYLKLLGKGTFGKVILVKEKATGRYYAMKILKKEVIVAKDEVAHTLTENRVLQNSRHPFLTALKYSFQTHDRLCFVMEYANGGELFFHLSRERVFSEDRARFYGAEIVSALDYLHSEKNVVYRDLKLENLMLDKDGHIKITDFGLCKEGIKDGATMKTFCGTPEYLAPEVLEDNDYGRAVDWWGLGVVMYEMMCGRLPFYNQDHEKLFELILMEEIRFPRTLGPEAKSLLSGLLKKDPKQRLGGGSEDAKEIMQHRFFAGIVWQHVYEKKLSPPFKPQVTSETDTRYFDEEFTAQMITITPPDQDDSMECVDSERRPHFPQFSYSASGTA
T1 sequence (P23443 whole entry T412E): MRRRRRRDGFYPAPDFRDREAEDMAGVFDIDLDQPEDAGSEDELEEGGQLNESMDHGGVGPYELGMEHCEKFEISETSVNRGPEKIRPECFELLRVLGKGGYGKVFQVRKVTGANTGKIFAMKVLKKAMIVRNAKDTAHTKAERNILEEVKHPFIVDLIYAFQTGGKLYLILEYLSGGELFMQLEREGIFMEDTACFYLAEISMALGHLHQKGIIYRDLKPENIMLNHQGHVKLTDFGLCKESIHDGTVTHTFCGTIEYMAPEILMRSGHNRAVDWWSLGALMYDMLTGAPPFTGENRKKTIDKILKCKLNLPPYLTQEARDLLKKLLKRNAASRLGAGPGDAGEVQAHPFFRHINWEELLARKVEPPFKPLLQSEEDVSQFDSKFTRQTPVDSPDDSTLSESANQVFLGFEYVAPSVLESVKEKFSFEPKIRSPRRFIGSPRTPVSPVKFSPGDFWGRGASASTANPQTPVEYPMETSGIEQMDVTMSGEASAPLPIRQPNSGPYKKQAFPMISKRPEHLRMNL

Take `Fc1ccc(-c2cn(CCN3CCC3)c(C3CCN(c4ncnc5c4CCC5)CC3)n2)cc1C(F)(F)F` [Compound A20, 4-{4-[1-(2-Azetidin-1-yl-ethyl)-4-(4-fluoro-3-trifluoromethyl-phenyl)-1H-imidazol-2-yl]-piperidin-1-yl}-6,7-dihydro-5H-cyclopentapyrimidine]: the half-inhibitory concentration (IC50) in assay [1] and in assay [2] was < 25 nM throughout.
Take `CN(C)CCn1cc(-c2ccc(F)cc2)nc1C1CCN(c2ncnc3c2NC(=O)CN3)CC1` [Compound A50, 4-{4-[4-(4-FluoroPhenyl)-1-(2-dimethylamin-1-yl-ethyl)-1H-imidazol-2-yl]-piperidin-1-yl}-7,8-dihydro-5H-pteridin-6-one]: the IC50 – broadly, the midpoint of a concentration-inhibition curve – in assay [1] lay within 101 to 500 nM; in assay [2], 501 to 1000 nM.
Taken in the same sequence, the figures for `CN(C)CCn1cc(-c2ccc(F)c(C(F)(F)F)c2)nc1C1CCN(c2ncnc3c2NC(=O)CN3)CC1` [Compound A41, 4-{4-[4-(4-fluoro-3-trifluoromethyl-phenyl)-1-(2-dimethyamine-1-yl-ethyl)-1H-imidazol-2-yl]-piperidin-1-yl}-7,8-dihydro-5H-pteridin-6-one] were < 25 nM and < 25 nM.
For the molecule `CN(C)CCn1cc(-c2ccnc(C(F)(F)F)c2)nc1C1CCN(c2ncnc3c2CCCN3)CC1` [Compound A36, Dimethyl-{2-[2-[1-(5,6,7,8-tetrahydro-pyrido[2,3-d]pyrimidin-4-yl)-piperidin-4-yl]-4-(2-trifluoromethyl-pyridin-4-yl)-imidazol-1-yl]-ethyl}-amine], the concentration for half-maximal inhibition (IC50) in assay [1] and in assay [2] was < 25 nM each time.
In the case of `Cc1ccc(-c2cn(CCN(C)C)c(C3CCN(c4ncnc5c4NC(=O)CN5)CC3)n2)cc1` [Compound A49, 4-{4-[4-(4-MethylPhenyl)-1-(2-dimethylamin-1-yl-ethyl)-1H-imidazol-2-yl]-piperidin-1-yl}-7,8-dihydro-5H-pteridin-6-one], the 50% inhibitory concentration (IC50) in assay [1] was 101 to 500 nM; in assay [2] it was > 1000 nM.
On the same counts, the results for `Fc1ccc(-c2cn(CCN3CCC3)c(C3CCN(c4ncnc5c4CCN5)CC3)n2)cc1C(F)(F)F` [Compound A28, 4-{4-[1-(2-Azetidin-1-yl-ethyl)-4-(4-fluoro-3-trifluoromethyl-phenyl)-1H-imidazol-2-yl]-piperidin-1-yl}-6,7-dihydro-5H-pyrrolo[2,3-d]pyrimidine] are < 25 nM and < 25 nM.
On the same counts, the results for `CN(C)CCn1cc(-c2ccc(F)c(C(F)(F)F)c2)nc1C1CCN(c2ncnc3c2CCC3)CC1` [Compound A14, {2-[2-[1-(6,7-Dihydro-5H-cyclopentapyrimidin-4-yl)-piperidin-4-yl]-4-(4-fluoro-3-trifluoromethyl-phenyl)-imidazol-1-yl]-ethyl}-dimethylamine] are < 25 nM and 26 to 100 nM.
Taken in the same sequence, the figures for `COc1cc(-c2cn(CCN(C)C)c(C3CCN(c4ncnc5c4CCCN5)CC3)n2)ccc1F` [Compound A34, (2-{4-(4-Fluoro-3-methoxy-phenyl)-2-[1-(5,6,7,8-tetrahydro-pyrido[2,3-d]pyrimidin-4-yl)-piperidin-4-yl]-imidazol-1-yl}-ethyl)-dimethylamine] were < 25 nM and < 25 nM.
Regarding `O=C1CNc2ncnc(N3CCC(c4nc(C(F)(F)F)cn4CCN4CCCC4)CC3)c2N1` [Compound A63, 4-{4-[trifluoromethyl-1-(2-pyrrolidin-1-yl-ethyl)-1H-imidazol-2-yl]-piperidin-1-yl}-7,8-dihydro-5H-ptericlin-6-one], the IC50 in assay [1] and in assay [2] was > 1000 nM each time.
